{"source": "patent US9110059B2", "about": "“Bio-pin” (Industry-Academic Cooperation Foundation, Yonsei University, priority 2011, dated 2015)", "format_in_all_cases": "cell-based", "key": {"[1]": {"tested_on": "rat mesenchymal stem cells (MSCs) attached to H9c2 cells", "assay": "Adhesion of BPin-RGD-treated mesenchymal stem cells to H9c2 cells (intercellular bond number)", "conditions": "stem cells treated with 100 nM bio-pin for an hour, kept 10 minutes on H9c2 cells; fluorescence 484 nm/501 nm", "experimental": "Rat cardiac myoblast H9c2 cells were incubated until a 4-well chamber (Lab-Tek chamber slide) was 100% filled with the H9c2 cells. Thereafter, the H9c2 cells were treated with a CellMask™ plasma membrane stain (Invitrogen, USA) at a final concentration of 5 μl/mL, reacted at 37° C. for 30 minutes in a CO2 incubator, and then washed three times with PBS.\nAlso, rat mesenchymal stem cells (MSCs) were cultured in a MesenPRO (Gibco, USA) medium in a petri dish. Thereafter, trypsin-EDTA and a trypsin-neutralizing solution were added at a ratio of 1:1, and then reacted for 5 minutes to detach the stem cells. The stem cells were treated with a cell-modifying dye (Vybrant™ DiO, Invitrogen, USA) at a final concentration of 2 μl/mL, reacted at 37° C. for 30 minutes in a CO2 incubator, washed three times with PBS, and then centrifuged for 3 minutes at a rotary speed of 1,200 rpm.\nThe prepared stem cells were treated with the bio-pin prepared in Example 3 at a final concentration of 100 nM, reacted at 37° C. for an hour in a CO2 incubator while stirring right and left, washed three times with PBS, and then centrifuged to obtain a cell pellet. Subsequently, the cell pellet was re-suspended in 400 μl of a DMEM medium supplemented with 10% FBS. […] To quantify the MSCs attached to the H9c2 cells, 200 μl of 0.1% Triton X-100 was added, and removed off after 5 minutes."}, "[2]": {"tested_on": "rat mesenchymal stem cells attached to H9c2 cells", "assay": "Adhesion of bio-pin-treated mesenchymal stem cells to H9c2 cells (intercellular bond number)", "conditions": "stem cells treated with 1 μM bio-pin for an hour, kept 10 minutes on H9c2 cells; fluorescence microscope and spectrometer", "experimental": "Rat cardiac myoblast H9c2 cells were incubated until a 4-well chamber (Lab-Tek chamber slide) was 100% filled with the H9c2 cells. Thereafter, the H9c2 cells were treated with a cell-labeled dye (Vybrant™ DiI) at a final concentration of 5 μl/mL, reacted at 37° C. for 30 minutes in a CO2 incubator, and then washed three times with PBS.\nAlso, rat mesenchymal stem cells were cultured in a MesenPRO (Gibco, USA) medium in a petri dish. Thereafter, trypsin-EDTA and a trypsin-neutralizing solution were added at a ratio of 1:1, and then reacted for 5 minutes to detach the stem cells. The stem cells were treated with a cell-modifying dye (Vybrant™ DiO, Invitrogen, USA) at a final concentration of 5 μl/mL, reacted at 37° C. for 30 minutes in a CO2 incubator, washed three times with PBS, and then centrifuged for 3 minutes at a rotary speed of 1,200 rpm to be prepared.\nThe prepared stem cells were treated with the peptide-based complex previously prepared in Example 1 or 2 at a final concentration of 1 μM, reacted at 37° C. for an hour in a CO2 incubator while stirring right and left, washed three times with PBS, and then centrifuged to obtain a cell pellet. […] To quantify the MSCs attached to the H9c2 cells, a cell medium was removed off, and 200 μl of 0.1% Triton X-100 was added, and removed off after 5 minutes."}, "[3]": {"tested_on": "vascular cell adhesion molecule-1 (VCAM-1)", "assay": "Immunoblotting of HUVEC lysate with anti-VCAM-1 antibody", "conditions": "TNF-alpha 10 ng/mL for 24 hours", "experimental": "(§1) HUVECs (5×10^4 cells/well) were cultured in an EGM medium (Lonza, USA) on a 24-well plate, starved for 4 hours in a 0.5% EBM medium, and treated with TNF-alpha (10 ng/mL) for 24 hours. Thereafter, the HUVECs were treated with a CellMask™ plasma membrane stain (Invitrogen, USA) at a final concentration of 5 μg/mL, reacted at 37° C. for 30 minutes in a CO2 incubator, and then washed three times with PBS.\n(§2) Also, to determine whether the HUVECs were suitably stimulated with TNF-alpha, immunoblotting was performed using anti-ICAM-1 and anti-VCAM-1 antibodies."}, "[4]": {"tested_on": "intercellular cell adhesion molecule-1 (ICAM-1)", "assay": "Immunoblotting of HUVEC lysate with anti-ICAM-1 antibody", "conditions": "TNF-alpha 10 ng/mL for 24 hours", "experimental": "as §1, §2"}}, "data": [{"substance": "BPin-RGD: bio-pin with adhesive peptide (GRGDSP) at N-terminus and TAT cell-penetrating peptide at C-terminus of the 31-amino-acid OPRD peptide (GRGDSPGSLAIAITALYSAVCAVGLLGNVLVMFGIVRYTYGRKKRRQRRR; BPin-RGD RGD-OPRD-TAT)", "values": [{"measurement": "number of intercellular bonds (FIG. 7)", "setting": "[1]", "result": "remarkably increased"}]}, {"substance": "BPin-55: bio-pin in which TAT cell-penetrating peptides are fused with N- and C-terminus of 31-amino-acid OPRD first transmembrane domain peptide (YGRKKRRQRRRGSLAIAITALYSAVCAVGLLGNVLVMFGIVRYTYGRKKRRQRRR; BPin-55 TAT-OPRD-TAT)", "values": [{"measurement": "number of intercellular bonds (FIGS. 5 and 6)", "setting": "[2]", "result": "remarkably increased"}]}, {"substance": "TNF-alpha", "values": [{"measurement": "VCAM-1 expression in HUVECs (FIG. 9)", "setting": "[3]", "result": "increasingly expressed"}, {"measurement": "ICAM-1 expression in HUVECs (FIG. 9)", "setting": "[4]", "result": "increasingly expressed"}]}]}
